According to patent publication US20210330611A1, “THERAPY FOR NEUROLOGICAL DISEASES/DISORDERS” (priority 2020, published 2021):
pIC50: −log10 of the molar value. Where a name gives a salt, the structure may show the parent alone. Read-outs that look alike come from different tables or passages of the source.

Tests used:
[1] = test system: primary rat microglia; test: Cell toxicity (dead cells, size <150 μm2) in LPS assay; details: for IC50: read-out: Cell Toxicity IC50 (uM) [LPS assay]
[2] = test system: primary rat microglia; test: Cell toxicity (dead cells, size <150 μm2) in coated fibrin (cFib) assay; details: for IC50: read-out: Cell Toxicity IC50 (uM) [cFib assay];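 on Fibrin % cell toxicity: share of dead cells sized under 150 µm2 at 10 µM in fibrin-stimulated microglia HTS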
[3] = test system: LPS-induced microglia activation; test: Image-based assay of LPS-induced microglia activation (HTS and dose response); assay type: cell-based, rat; details: for inhibition at 10 µM: Rattus norvegicus, Microglia, read-out: LPS % inhibition; for IC50: read-out: LPS IC50 (uM) (Suppl. Table 7); for pIC50: read-out: LPS IC50
[4] = test system: fibrin- and LPS-induced microglia activation; test: cells; assay type: cell-based, rat; details: for Hit: HTS hit classification
[5] = test system: fibrin-induced microglia activation; test: Image-based assay of fibrin-induced microglia activation (HTS and dose response); assay type: cell-based, rat; details: for inhibition at 10 µM: Rattus norvegicus, Microglia, read-out: Fibrin % inhibition; for pIC50: read-out: Fibrin IC50; for IC50: read-out: Fibrin IC50 (uM) (Suppl. Table 7)
[6] = primary microglia HTS, 10 μM, LPS assay, cell size <150 μm^2 as marker of toxicity
[7] = primary microglia HTS, 10 μM, fibrin assay, cell size <150 μm^2 as marker of toxicity
[8] = primary microglia HTS, 10 μM, LPS-stimulated, cell size >800 μm^2 as marker of activation
[9] = HTS of 1907 compounds, quadrant by fibrin and LPS inhibition
[10] = primary microglia HTS, 10 μM, fibrin-stimulated, cell size >800 μm^2 as marker of activation
[11] = primary microglia HTS, LPS stimulation, toxicity = cell size <150 μm2
[12] = primary microglia HTS, fibrin stimulation, toxicity = cell size <150 μm2
[13] = 48 h, primary microglia HTS, LPS stimulation, activation = cell size >800 μm2
[14] = quadrant by fibrin and LPS inhibition in HTS of 1907 compounds
[15] = primary microglia HTS, fibrin stimulation, activation = cell size >800 μm2
[16] = primary microglia HTS, LPS stimulation, decreased size (<150 μm^2) as marker of toxicity
[17] = primary microglia HTS, fibrin stimulation, decreased size (<150 μm^2) as marker of toxicity
[18] = 48 h, primary microglia HTS, LPS stimulation, increased cell size (>800 μm^2) as marker of activation
[19] = primary microglia HTS, fibrin stimulation, increased cell size (>800 μm^2) as marker of activation
[20] = primary microglia HTS, LPS stimulation, increased cell size (>800 μm^2) as marker of activation
[21] = primary HTS, 10 μM, LPS assay, dead cells size <150 μm2
[22] = primary HTS, 10 μM, fibrin assay, dead cells size <150 μm2
[23] = primary HTS, 10 μM, LPS-stimulated primary microglia
[24] = primary HTS, 10 μM, fibrin-stimulated primary microglia
[25] = Table 1, dose response 0.001-20 μM, triplicates, primary rat microglia, 48 h
[26] = dose response, LPS-induced microglia activation
[27] = dose response, fibrin-induced microglia activation

Compound: CC1(C)O[C@@H]2[C@@H](CO[C@@]3(COS(N)(=O)=O)OC(C)(C)O[C@@H]23)O1 [Topiramate]
- LPS % cell toxicity [1, 6]: 0%
- Fibrin % cell toxicity [2, 7]: 1%
- inhibition at 10 µM [3, 8]: 5%
- Quadrant (FIG. 5b) [4, 9]: Q4
- inhibition at 10 µM [5, 10]: 4%

Compound: NC(=O)CCCCC1CCSS1 (stereo not shown) [Lipoamide]
- LPS % cell toxicity [1, 11]: 0%
- Fibrin % cell toxicity [2, 12]: 0%
- inhibition at 10 µM [3, 13]: 8%
- Quadrant (FIG. 5b) [4, 14]: Q4
- inhibition at 10 µM [5, 15]: -18%

Compound: CCN(CC)CCNC(=O)c1cc(Cl)c(N)cc1OC [Metoclopramide]
- LPS % cell toxicity [1, 16]: 0%
- Fibrin % cell toxicity [2, 17]: 1%
- inhibition at 10 µM [3, 18]: 12%
- Quadrant (FIG. 5b) [4, 14]: Q4
- inhibition at 10 µM [5, 19]: -2%

Compound: C[C@]12Cc3c[nH]nc3C[C@@H]1CC[C@@H]1[C@@H]2CC[C@@]2(C)[C@H]1CC[C@]2(C)O [Stanozolol]
- LPS % cell toxicity [1, 6]: 1%
- Fibrin % cell toxicity [2, 7]: 1%
- inhibition at 10 µM [3, 8]: 33%
- Quadrant (FIG. 5b) [4, 9]: Q4
- inhibition at 10 µM [5, 10]: -5%

Compound: Oc1ccc(OCc2ccccc2)cc1 [Monobenzone]
- LPS % cell toxicity [1, 16]: 0%
- Fibrin % cell toxicity [2, 17]: 1%
- inhibition at 10 µM [3, 18]: 16%
- Quadrant (FIG. 5b) [4, 14]: Q4
- inhibition at 10 µM [5, 19]: 7%

Compound: CN1CC(=O)N2[C@H](c3ccc4c(c3)OCO4)c3[nH]c4ccccc4c3C[C@@H]2C1=O [Tadalafil]
- LPS % cell toxicity [1, 6]: 0%
- Fibrin % cell toxicity [2, 7]: 1%
- inhibition at 10 µM [3, 8]: 16%
- Quadrant (FIG. 5b) [4, 9]: Q4
- inhibition at 10 µM [5, 10]: -1%

Compound: COc1ccc(CCN2CCC(Nc3nc4ccccc4n3Cc3ccc(F)cc3)CC2)cc1 [Astermizole]
- LPS % cell toxicity [1, 16]: 2%
- Fibrin % cell toxicity [2, 17]: 1%
- LPS % inhibition [3, 20]: 69%
- Quadrant (FIG. 5b) [4, 14]: Q1
- Fibrin % inhibition [5, 19]: 10%

Compound: Cc1ccc(S(=O)(=O)[N-]Cl)cc1.[Na+] [Chloramine-t]
- LPS % cell toxicity [1, 21]: 0%
- Fibrin % cell toxicity [2, 22]: 1%
- LPS % inhibition [3, 23]: 11%
- Quadrant (FIG. 5b) ([4]; primary HTS, 10 μM): Q4
- Fibrin % inhibition [5, 24]: 4%

Compound: CC1(C)S[C@@H]2[C@H](N3C(=O)[C@@H](c4ccccc4)NC3(C)C)C(=O)N2[C@H]1C(=O)O [Hetacillin Potassium]
- LPS % cell toxicity [1, 11]: 1%
- Fibrin % cell toxicity [2, 12]: 0%
- inhibition at 10 µM [3, 13]: 15%
- Quadrant (FIG. 5b) [4, 14]: Q4
- inhibition at 10 µM [5, 15]: -15%

Compound: C=C(C)[C@H]1CN[C@H](C(=O)O)[C@H]1CC(=O)O [Kainic Acid]
- LPS % cell toxicity [1, 11]: 0%
- Fibrin % cell toxicity [2, 12]: 0%
- inhibition at 10 µM [3, 13]: 14%
- Quadrant (FIG. 5b) [4, 14]: Q4
- inhibition at 10 µM [5, 15]: -77%

Compound: CCN(CC)CCOc1ccc2c(c1)C(=O)c1cc(OCCN(CC)CC)ccc1-2 [Tilorone]
- LPS % cell toxicity [1, 16]: 1%
- Fibrin % cell toxicity [2, 17]: 0%
- inhibition at 10 µM [3, 18]: 60%
- Quadrant (FIG. 5b) [4, 14]: Q1
- inhibition at 10 µM [5, 19]: -21%

Compound: Cc1ccc2c(Cl)cc(Cl)c(O)c2n1 [Chlorquinaldol]
- LPS % cell toxicity [1, 21]: 0%
- Fibrin % cell toxicity [2, 22]: 1%
- inhibition at 10 µM [3, 23]: 15%
- Quadrant (FIG. 5b) ([4]; primary HTS, 10 μM): Q4
- inhibition at 10 µM [5, 24]: -14%

Compound: NC(=O)N[C@@H](CCC(=O)O)C(=O)O [Carglumic Acid]
- LPS % cell toxicity [1, 21]: 0%
- Fibrin % cell toxicity [2, 22]: 1%
- inhibition at 10 µM [3, 23]: 6%
- Quadrant (FIG. 5b) ([4]; primary HTS, 10 μM): Q4
- inhibition at 10 µM [5, 24]: 1%

Compound: Cc1ncc([N+](=O)[O-])n1CC(O)CCl (stereo not shown) [Ornidazole]
- LPS % cell toxicity [1, 16]: 0%
- Fibrin % cell toxicity [2, 17]: 0%
- inhibition at 10 µM [3, 18]: 12%
- Quadrant (FIG. 5b) [4, 14]: Q4
- inhibition at 10 µM [5, 19]: -22%

Compound: CCn1cc(C(=O)O)c(=O)c2ccc(C)nc21 [Nalidixic Acid]
- LPS % cell toxicity [1, 16]: 1%
- Fibrin % cell toxicity [2, 17]: 1%
- inhibition at 10 µM [3, 18]: 13%
- Quadrant (FIG. 5b) [4, 14]: Q4
- inhibition at 10 µM [5, 19]: -1%

Compound: CCCOc1ccc2[nH]c(NC(=O)OC)nc2c1 [Oxybendazole, reference compound]
- LPS % cell toxicity [1, 16]: 1%
- IC50 ([1]; LPS assay): > 20 µM
- IC50 ([1]; Table 3): > 20 µM
- Fibrin % cell toxicity [2, 17]: 2%
- IC50 ([2]; Table 3): > 20 µM
- IC50 ([2]; cFib assay): > 20 µM
- IC50 ([3]; LPS-induced microglia activation, dose response): 12 µM
- pIC50 [3, 25]: 4.92
- IC50 ([3]; Table 3): 12 µM
- pIC50 [3, 26]: 4.92
- LPS % inhibition [3, 20]: 15%
- Hit [4]: HIT (Hits were defined as molecules that exhibited greater than 50% inhibition of either fibrin or LPS activation)
- Quadrant (FIG. 5b) [4, 9]: Q3
- Quadrant (FIG. 5b) ([4]; Table 1, screen at 10 μM): Q3
- Cherry-picked Hit (Suppl. Table 7) ([4]; Table 3): HIT (Hits were defined as molecules that exhibited greater than 50% inhibition of either fibrin or LPS activation)
- Quadrant (FIG. 5b) ([4]; Table 3, screen at 10 μM): Q3
- Cherry-picked Hit (Suppl. Table 7) ([4]; hit classification in microglia HTS): HIT (Hits were defined as molecules that exhibited greater than 50% inhibition of either fibrin or LPS activation)
- Quadrant (FIG. 5b) [4, 14]: Q3
- Fibrin Selectivity [5]: 2
- Fibrin Selectivity (LOG10) [5]: 0.22
- pIC50 [5, 25]: 5.15
- IC50 ([5]; Table 3): 7 µM
- pIC50 [5, 27]: 5.15
- IC50 ([5]; fibrin-induced microglia activation, dose response): 7 µM
- Fibrin % inhibition [5, 19]: 78%

Compound: CCOC(=O)C1=C[C@@H](OC(CC)CC)[C@H](NC(C)=O)[C@@H](N)C1 [Oseltamivir]
- LPS % cell toxicity [1, 16]: 1%
- Fibrin % cell toxicity [2, 17]: 1%
- inhibition at 10 µM [3, 18]: 26%
- Quadrant (FIG. 5b) [4, 14]: Q4
- Fibrin % inhibition [5, 19]: −28%

Compound: C[C@H](O)C(=O)Nc1c(I)c(C(=O)NC(CO)CO)c(I)c(C(=O)NC(CO)CO)c1I [Iopamidol]
- LPS % cell toxicity [1, 11]: 0%
- Fibrin % cell toxicity [2, 12]: 1%
- inhibition at 10 µM [3, 13]: -4%
- Quadrant (FIG. 5b) [4, 14]: Q4
- inhibition at 10 µM [5, 15]: -14%

Compound: Tyrothricin [reference compound]
- LPS % cell toxicity [1, 16]: 2%
- Fibrin % cell toxicity [2, 17]: 2%
- pIC50 [3, 25]: 6.30
- pIC50 [3, 26]: 6.30
- LPS % inhibition [3, 20]: 102%
- Hit [4]: HIT (Hits were defined as molecules that exhibited greater than 50% inhibition of either fibrin or LPS activation)
- Quadrant (FIG. 5b) ([4]; Table 1, screen at 10 μM): Q2
- Quadrant (FIG. 5b) [4, 14]: Q2
- pIC50 [5, 25]: 5.52
- pIC50 [5, 27]: 5.52
- Fibrin % inhibition [5, 19]: 89%

Compound: CSc1ccc2c(c1)C(N1CCN(C)CC1)Cc1ccccc1S2 (stereo not shown)
- LPS % cell toxicity [1, 16]: 0%
- Fibrin % cell toxicity [2, 17]: 1%
- LPS % inhibition [3, 20]: −5%
- Quadrant (FIG. 5b) [4, 14]: Q4
- Fibrin % inhibition [5, 19]: 11%

Compound: N=C(N)NCC1COC2(CCCCC2)O1 (stereo not shown) [Guanadrel]
- LPS % cell toxicity [1, 11]: 0%
- Fibrin % cell toxicity [2, 12]: 1%
- inhibition at 10 µM [3, 13]: 5%
- Quadrant (FIG. 5b) [4, 14]: Q4
- inhibition at 10 µM [5, 15]: -1%

Compound: C[N+]1(C)[C@@H]2C[C@@H](OC(=O)C(O)(c3cccs3)c3cccs3)C[C@H]1[C@@H]1O[C@@H]12 [Tiotropium]
- LPS % cell toxicity [1, 6]: 0%
- Fibrin % cell toxicity [2, 7]: 0%
- inhibition at 10 µM [3, 8]: -1%
- Quadrant (FIG. 5b) [4, 9]: Q4
- inhibition at 10 µM [5, 10]: -32%

Compound: NP(N)(=O)NC(=O)c1ccc(F)cc1 [Flurofamide]
- LPS % cell toxicity [1, 11]: 0%
- Fibrin % cell toxicity [2, 12]: 0%
- inhibition at 10 µM [3, 13]: -12%
- Quadrant (FIG. 5b) [4, 14]: Q4
- inhibition at 10 µM [5, 15]: 3%

Compound: CN(C/C=C/C#CC(C)(C)C)Cc1cccc2ccccc12 [Terbinafine, Terbinafine Hydrochloride]
- LPS % cell toxicity [1, 6]: 0%
- Fibrin % cell toxicity [2, 7]: 0%
- LPS % inhibition [3, 8]: 6%
- Quadrant (FIG. 5b) [4, 9]: Q4
- Fibrin % inhibition [5, 10]: −23%

Compound: N=C1NC(=O)N2CC12 (stereo not shown) [Imexon]
- LPS % cell toxicity [1, 11]: 1%
- Fibrin % cell toxicity [2, 12]: 1%
- inhibition at 10 µM [3, 13]: 12%
- Quadrant (FIG. 5b) [4, 14]: Q4
- inhibition at 10 µM [5, 15]: -3%
